Data taken from PMC11763059, “GENI as an AMPK Activator Binds α and γ Subunits and Improves the Memory Dysfunction of Alzheimer’s Disease Mouse Models via Autophagy and Neuroprotection” (Antioxidants, 2025).

Tests used:
[1] = test system: natural aging AD mice; assay: Immunohistochemistry and Western blot of brain in naturally aged AD mice; format: in vivo; conditions: Dor 2 mg/kg + GENI 25 mg/kg
Procedure: (§1) Each group had 10 mice. GENI was dissolved in ultrapure water and administered by gavage, whereas Dor was dissolved in normal saline. The pH was adjusted to pH 5 with 0.1 M hydrochloric acid to the clarified solution and administered by intraperitoneal injection. The dosing experiment also lasted 10 weeks. Animal behavioral experiments and sampling at the end of the animal experiment were performed as described above.
Firstly, the three mice of each group were subjected to heart perfusion at the end of the animal experiment, and the whole brain was removed and placed in 15 mL of 4% paraformaldehyde and stored at 4 °C for 24 h. Secondly, we changed 4% paraformaldehyde into 15% sucrose solution and stored the solution at 4 °C for 24 h. We then changed the solution to 30% sucrose solution to dehydrate for 2 days. Thirdly, the mouse brain tissue was embedded in a cryo-embedding medium, and about 80 slices with a thickness of 20 μm were cut in the hippocampus using a cryostat (Thermal Fisher, Shanghai, China). The sections of mice in each group were immunohistochemically stained with primary antibodies, such as neuronal nuclear anti gen (NeuN), ionized calcium-binding adapter molecule 1 (Iba-1), inducible nitric oxide synthase (iNOS, pro-inflammatory factors), synaptophysin (Syp), and glial fibrillary acidic protein (GFAP), and secondary antibody. The product number and usage ratios of primary and secondary antibodies are detailed in Supplementary Table S4. Finally, the sections were observed under an upright two-photon confocal microscope (Olympus BX61, Tokyo, Japan) and recorded by a camera. The pictures were digitized with ImageJ software V1.8.0.112 (National Institutes of Health, Bethesda, MD, USA).
(§2) Western blot analysis for p-AMPK α, AMPK α, p-mTOR, mTOR, p-ULK1, ULK1, and LC3-I/II was conducted according to the information described in the materials and methods section of Supplementary Information.
1.3. Western blot analysis. […]
The supernatants of each group were used as protein samples. For animal samples, an appropriate amount of tissue, such as cerebral cortex and hippocampus (50–100 mg), of each group was weighed, and we added lysis buffer with 1:9 ratios. After grinding and centrifuging, the supernatants of each group were used as protein samples. The protein concentration was measured with a BCA assay kit (Beijing Cowin Biotech Company, Beijing, China). Sodium dodecyl sulphate polyacrylamide gel electrophoresis (SDS-PAGE) was used to separate proteins (15 μg), which were transferred to PVDF membranes. The membrane was incubated with primary and secondary antibodies (Supplementary Table S5 for details). Antigens were visualised using a high-sensitivity chemiluminescence detection kit (Beijing Cowin Biotech Company, Beijing, China). Bands were quantitatively measured using ImageJ software (National Institutes of Health, Bethesda, MD, USA).

[2] = test system: AMPK; assay: Inhibitor experiment with Dor in PC12 cells (Western blot); format: cell-based; conditions: Dor pre-treatment then 10 μM GENI 2 h
Procedure: Firstly, 2 × 10^6 cells were added to a 60 mm Petri dish containing 5 mL of DMEM and incubated for 24 h. Secondly, the C group, GENI group, Dor group, and GENI+ Dor group were established. The dishes containing the Dor group were pre-treated with 5 μM Dor for 2 h, and the remaining groups were balanced with DMSO. The group containing 10 μM GENI was added, and the remaining groups were balanced with DMSO. After incubation for 2 h, protein extraction was performed for the Western blot experiment.

[3] = test system: natural aging AD mice; assay: Behaviour tests in naturally aged mice with AD; format: in vivo
Procedure: as §1
The Y-maze is mainly used to study the spatial working memory ability of rodents. The Y-maze consisted of three equal-length arms (50 cm × 18 cm × 35 cm), and the angle between each two arms was 120 degrees. The mice were placed at the end of any arm of the Y-maze and allowed to explore freely for 8 min. The behavioral changes including the total number of entries and alternation (successively entering all three arms of the Y-maze once in turn) were recorded. Percentage altercation = alternation/(entries-2) × 100%. The Y-maze could effectively reflect the ability of animals to recognize and remember novel environments.
NOR was used to detect memory in rodents. We prepared a 40 × 40 × 40 cm square box, camera equipment, and behavioral analysis software. We chose three objects A, B, and C, where objects A and B were exactly the same, and object C was very different from objects A and B. After the start of the experiment, the mice were allowed to acclimate freely in the experimental apparatus for 10 min. Objects A and B were placed into the box, and the mice were allowed to explore for 5 min. We then recorded the exploration time and times. After 1 h, A and C or B and C were placed into the box. After letting the mice explore for 5 min, we recorded the exploration time of the original object and the new object. Discrimination index = exploration time of new objects/total exploration time × 100%.
The MWM installation consisted of a circular pool (120 cm in diameter and 50 cm in height), camera equipment, and a computer analysis system. In the first stage, the platform position was fixed, and mice were placed into the pool from any three of the four origins on the pool facing away from the pool wall. The time when it took for the mouse to find the platform within 120 s, called escape latency, was recorded. The training period lasted 4 days. The escape latency of the mice was recorded daily, and the average value was used as an index to evaluate the ability of learning and memory. On the 5th day, the platform was evacuated by the experimenter. The mice were placed against the platform into the water from any water entry point, and they were allowed to swim freely for 60 s. We then recorded the number of times that they crossed the platform.

[4] = Serum biochemical index of D-galactose mice; conditions: D+DON 3 mg/kg, mean ± SEM, n 7
Text: (§3) Each group comprised 10 mice. […] Dosing lasted for 10 weeks. […] The mice were sacrificed after 10 weeks of administration.
(§4) At the end of the animal experiment, the epididymis fat, heart, liver, spleen, and kidney of the mice were removed for weighing analysis.

[5] = Organ weights in the D-gal induced AD mice experiment; conditions: D-gal + DON 3 mg/kg, gavage 10 weeks, mean ± SEM, n 7
Text: as §3, §4

[6] = test system: APP/PS1 mice; design: method as in PMID 31837991; conditions: APP/PS1 mice ref 27; cited from earlier work
[7] = test system: PC12 cells; assay: Western blot of LC3 II/LC3 I in the autophagy flow assay; format: cell-based; conditions: 3-MA 5 mM
Procedure: as §2
1.3. Western blot analysis.
For PC12 cell samples, we seeded 2 × 10^6 PC12 cells in each 60 mm dish containing 5 mL of DMEM and incubated the dish for 24 h. For the dose-dependent experiment of GENI, GENI (1, 3 and 10 μM) was added to the dishes and incubated for a period of time (2 hours for p-AMPK α, AMPK α, 48 hours for p-mTOR, mTOR and p-ULK1, ULK1; 8 hours for LC3-I/II). Cells were then collected, lysed using RAPI lysis buffer and centrifuged. The supernatants of each group were used as protein samples. For the protein samples of autophagy flow assay, we seeded 2 × 10^6 PC12 cells in each 60 mm dish containing 5 mL of DMEM and incubated the dish for 24 h.
The GENI, rapamycin and inhibitors, such as chloroquine and 3-MA were added according to the method of autophagy flow assay. After treatment of 18 h, cells were then collected, lysed using RAPI lysis buffer and centrifuged. […] The protein concentration was measured with a BCA assay kit (Beijing Cowin Biotech Company, Beijing, China). […] Bands were quantitatively measured using ImageJ software (National Institutes of Health, Bethesda, MD, USA).

[8] = test system: PC12 cells; assay: Autophagy flow assay (CYTO-ID) in PC12 cells; format: cell-based; conditions: 5 mM 3-MA + 10 μM GENI + 10 μM CQ
Procedure: The experiment was carried out according to the instructions of the CYTO-ID autophagy detection kit (Enzo Biochem, New York, NY, USA). In brief, we seeded 7.5 × 10^4 PC12 cells in each well of a 24-well plate using the cell slide method. The cells were incubated for 24 h at 37 °C in a 5% CO2 incubator. The experiment was divided into control (0.5% DMSO), positive control rapamycin (Rap 500 nM + chloroquine (CQ)), GENI treated-group (10 μM GENI + 10 μM CQ), 3-MA inhibitor group (5 mM 3-MA + 10 μM CQ) and GENI + 3MA group (5 mM 3-MA + 10 μM GENI + 10 μM CQ). The optimum concentration of 3MA inhibitor was referenced in the other report. At first, 0.5 mL of serum-free DMEM (plus 1% dual anti-penicillin–streptomycin) containing 3-MA (5 mM) was used to replace the medium in two groups as well as 0.5 mL of serum-free DMEM was added in the other groups, respectively. After treating for 6 h, 0.5 mL of DMEM containing DMSO (0.5%), Rap (500 nM) + CQ (10 μM), GENI (10 μM) + CQ (10 μM), CQ (10 μM), and GENI (10 μM) + CQ (10 μM) was added into the corresponding group, respectively. After 18 h, we removed the medium and washed cells twice with 1× assay buffer containing 5% FBS. We then added CYTO-ID Green detection reagent and Hocchst 33342 nuclear stain to the cells, which were incubated at 37 °C for 45 min. After three washes with 1× assay buffer, we fixed cells with 4% paraformaldehyde for 20 min. After three washes with 1× assay buffer, we observed the cells with an upright two-photon confocal microscope (Olympus FV1000BX-51, Tokyo, Japan).

## c1cc(-c2cnn3cc(-c4ccc(OCCN5CCCCC5)cc4)cnc23)ccn1 [Dor, dorsomorphin]
[1]
  activation of the AMPK/mTOR/ULK1 signaling pathway by GENI in hippocampus and cortex, effect of the AMPK inhibitor: suppressed
  anti-inflammation effects of GENI on activated microglia and astrocytes and iNOS expression, effect of the AMPK inhibitor: significantly suppressed
  effects of GENI on APP, Tau, Aβ and p-Tau, effect of the AMPK inhibitor: inhibited
  increase in neurons and synaptophysin expression in hippocampus and cortex by GENI, effect of the AMPK inhibitor: significantly diminished
[2]
  phosphorylation of AMPK, ULK1, and LC3 II after GENI treatment, effect of the AMPK inhibitor: significantly decreased
[3]; Dor 2 mg/kg + GENI 25 mg/kg
  GENI effects on escape latency and number of crossing platforms, effect of the AMPK inhibitor: partially reduced
[3]; Dor 2 mg/kg i.p. once every 2 days + GENI 25 mg/kg
  improvement in cognitive function by GENI in Y maze and NOR tests, effect of the AMPK inhibitor: significantly decreased

## COc1cc2c(cc1OC)C(=O)C(CC1CCN(Cc3ccccc3)CC1)C2 (stereo not shown) [DON, donepezil]
[4]
  ALB: 24.0 ± 1.6 g/L
[5]
  Fat weight: 0.728 ± 0.302 g
  Heart weight: 0.196 ± 0.048 g
  Kidney weight: 0.547 ± 0.034 g
  Spleen weight: 0.113 ± 0.015 g

## O=C(O)C1=CO[C@@H](O[C@@H]2O[C@H](CO)[C@@H](O)[C@H](O)[C@H]2O)[C@@H]2C(CO)=CC[C@H]12 [GPA, geniposidic acid]
[6]
  Aβ deposition in brains: reduce
  spatial learning and memory abilities: significantly improve

## Cn1cnc(N)c2ncnc1-2 [3-MA, reference compound]
[7]
  conversion of LC3 I to LC3 II induced by GENI, effect of the inhibitor: diminished
[8]
  autophagy induced by GENI, effect of the inhibitor: inhibited
